Experimental data taken from patent US7671054B1, “Reverse-turn mimetics and method relating thereto” (Choongwae Pharma Corporation, priority 2001, dated 2010).
Where two headings read alike, the source gives them in different places.

Legend:
Format in all cases: cell-based
[1] = tested on: TCF4/β-catenin transcription (TOPFlash) in SW480 cells; assay: Reporter gene assay (TOPFlash luciferase); details: Homo sapiens, SW480, Table 4; Reporter gene assay as described in Example 6; read-out: IC50
Method in brief: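 SW480 cells transiently co-transfected with TOPFlash and pRL-null (4:1 µg) using Superfect, then reseeded at 3×10^4 cells/well and incubated overnight at 37 °C. Compound treatment lasted 24 h before luciferase read-out.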

[2] = tested on: SW480 cells; assay: Growth inhibition assay (MTS); details: Homo sapiens, Table 5, SW480 cells, 48 hours treatment, MTS, read-out: Growth Inhibition (GI50, uM) SW480
Method in brief: (§1)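 Cells seeded at 10^4 per well, grown 24 h at 37° C, then exposed to compound at various concentrations for 48 hours. MTS added for 2 h; absorbance at 490 nm gave viability, with cytotoxicity calculated per concentration against pre-treatment reading.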

[3] = tested on: HCT116 cells; assay: Growth inhibition assay (MTS); details: Homo sapiens, Table 5, HCT116 cells, 48 hours treatment, MTS, read-out: Growth Inhibition (GI50, uM) HCT116
Method in brief: as §1

Compound | IC50 [1] [nM] | GI50 ([2]; SW480, 48 h) [µM] | GI50 ([3]; HCT-116, 48 h) [µM] | GI50 [2] [µM] | GI50 ([3]; HCT-116) [µM]
CN1CC(=O)N2C(CN(Cc3cc(F)c(F)c(F)c3)C(=O)[C@@H]2Cc2ccc(O)cc2)N1C(=O)NCc1ccccc1 (stereo in doubt) [Compound 16] | 3800 | 4.18 | 2.95 |  | 
COc1ccc(CN2CC3N(C(=O)CN(C)N3C(=O)NCc3ccccc3)[C@@H](Cc3ccc(O)cc3)C2=O)cc1 (stereo partly drawn) [Compound 20] |  | 5.02 | 2.75 |  | 
C=CCN1CC(=O)N2[C@@H](Cc3ccc(O)cc3)C(=O)N(Cc3cccc4cccnc34)C[C@@H]2N1C(=O)NCc1ccccc1 [Compound 100] |  | 0.3 ± 0.03 | 0.4 ± 0.1 |  | 
C#CCN1CC(=O)N2[C@@H](Cc3ccc(O)cc3)C(=O)N(Cc3ccc(F)cc3F)[C@@H](C)[C@@H]2N1C(=O)NCc1ccccc1 [Compound 84] |  |  |  | 8.4 ± 1.1 | 9.9 ± 1
CN1CC(=O)N2[C@@H](Cc3ccc(O)cc3)C(=O)N(Cc3cccc4cnn(Cc5ccccc5[N+](=O)[O-])c34)C[C@@H]2N1C(=O)NCc1ccccc1 [Compound 51] |  | 3 ± 0.1 | 2.8 |  | 
CN1CC(=O)N2C(CN(Cc3ccc(Cl)cc3Cl)C(=O)[C@@H]2Cc2ccc(O)cc2)N1C(=O)NCc1ccccc1 (stereo partly drawn) [Compound 18] |  | 4.63 | 3.52 |  | 
C=CCN1CC(=O)N2[C@@H](Cc3ccc(OP(=O)(O)O)cc3)C(=O)N(Cc3ccccc3)C[C@@H]2N1C(=O)NCc1ccccc1 [Compound 144] |  |  |  | 0.5 ± 0.03 | 0.6 ± 0.1
CN(C)c1cc(F)ccc1CN1C[C@H]2N(C(=O)CN(C)N2C(=O)NCc2ccccc2)[C@@H](Cc2ccc(O)cc2)C1=O [Compound 27] |  | 11.7 | 1.13 |  | 
CN1CC(=O)N2[C@@H](Cc3ccc(O)cc3)C(=O)N(Cc3ccccc3C(F)(F)F)C[C@@H]2N1C(=O)NCc1ccccc1 [Compound 10] |  |  |  | 2.34 | 1.66
C=CCN1CC(=O)N2[C@@H](Cc3ccc(OP(=O)(O)O)cc3)C(=O)N(Cc3cccc4c3OCCN4C)C[C@@H]2N1C(=O)NCc1ccccc1 [Compound 139] |  |  |  | 1.2 ± 0.1 | 1 ± 0.2
CN(Cc1ccccc1)c1cccc(CN2C[C@H]3N(C(=O)CN(C)N3C(=O)NCc3ccccc3)[C@@H](Cc3ccc(O)cc3)C2=O)c1 [Compound 56] |  | 10.8 | 9.1 |  | 
CN1CC(=O)N2[C@@H](Cc3ccc(O)cc3)C(=O)N(Cc3cccc4c3nnn4C)C[C@@H]2N1C(=O)NCc1ccccc1 [Compound 53] |  | 11.4 ± 0.9 | 4.7 ± 0.4 |  | 
CN(C)c1cc(Cl)ccc1CN1C[C@H]2N(C(=O)CN(C)N2C(=O)NCc2ccccc2)[C@@H](Cc2ccc(O)cc2)C1=O [Compound 24] |  | 13.8 | 1.67 |  | 
C=CCN1CC(=O)N2[C@@H](Cc3ccc(OP(=O)(O)O)cc3)C(=O)N(Cc3cccc4scnc34)C[C@@H]2N1C(=O)NCc1ccccc1 [Compound 167] |  |  |  | 0.3 ± 0.02 | 0.2 ± 0.02
CCN(C)c1cccc(CN2C[C@H]3N(C(=O)CN(C)N3C(=O)NCc3ccccc3)[C@@H](Cc3ccc(O)cc3)C2=O)c1 [Compound 25] |  | 24.5 | 1.81 |  | 
CN1CC(=O)N2[C@@H](Cc3ccc(O)cc3)C(=O)N(Cc3cccc(F)c3)C[C@@H]2N1C(=O)NCc1ccccc1 [Compound 11] |  |  |  | 1.97 | 1.3
C#CCN1CC(=O)N2[C@@H](Cc3ccc(O)cc3)C(=O)N(Cc3cccc4cccnc34)C[C@@H]2N1C(=O)NCc1ccccc1 [Compound 87] |  | 0.6 ± 0.2 | 0.5 ± 0.1 |  | 
CN(C)CCn1ncc2cccc(CN3C[C@H]4N(C(=O)CN(C)N4C(=O)NCc4ccccc4)[C@@H](Cc4ccc(O)cc4)C3=O)c21 [Compound 62] |  | 35.3 ± 4.6 | 23.5 ± 2.7 |  | 
CN1CC(=O)N2[C@@H](Cc3ccc(O)cc3)C(=O)N(Cc3ccc4cnn(Cc5ccccc5N)c4c3)C[C@@H]2N1C(=O)NCc1ccccc1 [Compound 61] |  | 11.3 ± 6 | 3.6 ± 0.3 |  | 
CN1CC(=O)N2[C@@H](Cc3ccc(O)cc3)C(=O)N(Cc3ccccc3OC(F)(F)F)C[C@@H]2N1C(=O)NCc1ccccc1 [Compound 5] |  | 2.32 | 2.06 |  | 
CN1CC(=O)N2C(CN(Cc3ccccc3Cl)C(=O)[C@@H]2Cc2ccc(O)cc2)N1C(=O)NCc1ccccc1 (stereo partly drawn) [Compound 15] |  | 1.68 | 1.34 |  | 
C[C@H]1[C@@H]2N(C(=O)CN(C)N2C(=O)NCc2ccccc2)[C@@H](Cc2ccc(O)cc2)C(=O)N1Cc1ccc(F)cc1F [Compound 45] |  | 2.5 ± 0.2 | 2.9 ± 0.4 |  | 
CCN1CC(=O)N2[C@@H](Cc3ccc(O)cc3)C(=O)N(Cc3ccc(Cl)c(N(C)C)c3)C[C@@H]2N1C(=O)NCc1ccccc1 [Compound 97] |  | 7.1 ± 1 | 5.2 ± 0.5 |  | 
CN1CC(=O)N2[C@@H](Cc3ccc(O)cc3)C(=O)N(Cc3cc(F)c(F)c(F)c3)C[C@@H]2N1C(=O)NCc1ccccc1 [Compound 17] |  | 1.12 | 0.74 |  | 

Second part, led by results:

IC50 [1] [nM] | GI50 ([2]; SW480, 48 h) [µM] | GI50 ([3]; HCT-116, 48 h) [µM] | Compound | GI50 [2] [µM] | GI50 ([3]; HCT-116) [µM]
 | 3 ± 0.3 | 2.9 ± 0.4 | C=CCN1CC(=O)N2[C@@H](Cc3ccc(O)cc3)C(=O)N(Cc3cccc(N(C)C(=O)CCCCC)c3)C[C@@H]2N1C(=O)NCc1ccccc1 [Compound 164] |  | 
 | 1.4 ± 0.4 | 1.3 ± 0.3 | C=CCN1CC(=O)N2[C@@H](Cc3ccc(O)cc3)C(=O)N(Cc3cc(C)cc4c3N(C)CCO4)C[C@@H]2N1C(=O)NCc1ccccc1 [Compound 137] |  | 
 | 3.7 ± 0.3 | 3.8 ± 0.2 | C=CCN1CC(=O)N2[C@@H](Cc3ccc(O)c(F)c3)C(=O)N(Cc3ccc(F)cc3)C[C@@H]2N1C(=O)NCc1ccccc1 [Compound 156] |  | 
 | 22.8 ± 0.9 | 24.4 ± 1.9 | C[C@H](c1ccc(F)cc1F)N1C[C@H]2N(C(=O)CN(C)N2C(=O)NCc2ccccc2)[C@@H](Cc2ccc(O)cc2)C1=O [Compound 165] |  | 
 | 4.2 ± 0.4 | 4.1 ± 0.5 | C=CCN1CC(=O)N2[C@@H](CN([C@H](C)c3cccc4cccnc34)C(=O)[C@@H]2Cc2ccc(O)cc2)N1C(=O)NCc1ccccc1 [Compound 161] |  | 
 | 1.6 ± 0.2 | 1.5 ± 4.4 | C=CCN1CC(=O)N2[C@@H](Cc3ccc(O)cc3)C(=O)N(Cc3ccc(OC)cc3)C[C@@H]2N1C(=O)NCc1ccccc1 [Compound 178] |  | 
 | 13.7 ± 0.5 | 10.1 ± 1.3 | C=CCN1CC(=O)N2[C@@H](Cc3ccc(O)cc3)C(=O)N([C@@H](C)c3cccc4cccnc34)C[C@@H]2N1C(=O)NCc1ccccc1 [Compound 160] |  | 
 | 19.4 ± 3 | 11.6 ± 3 | C=CCN1CC(=O)N2[C@@H](Cc3ccc(O)cc3)C(=O)N(Cc3cc(N(C)C(C)C)cc(C(F)(F)F)c3)C[C@@H]2N1C(=O)NCc1ccccc1 [Compound 126] |  | 
 | 1.6 ± 0.3 | 1.5 ± 0.1 | C=CCN1CC(=O)N2[C@@H](Cc3ccc(O)cc3)C(=O)N(Cc3ccc(OC)cc3OC)C[C@@H]2N1C(=O)NCc1ccccc1 [Compound 183] |  | 
 | 1.7 ± 0.2 | 1.7 ± 0.1 | C=CCN1CC(=O)N2[C@@H](Cc3ccc(O)cc3)C(=O)N(Cc3cccc(OC(F)(F)F)c3)C[C@@H]2N1C(=O)NCc1ccccc1 [Compound 176] |  | 
 | 0.8 ± 0.1 | 1.1 ± 0.1 | C=CCN1CC(=O)N2[C@@H](Cc3ccc(O)cc3)C(=O)N(Cc3ccc(Cl)c4scnc34)C[C@@H]2N1C(=O)NCc1ccccc1 [Compound 193] |  | 
 | 11.2 ± 1.3 | 8.6 ± 0.9 | C=CCN1CC(=O)N2[C@@H](CC3(O)C=CC(=O)C=C3)C(=O)N(Cc3ccc(F)cc3F)C[C@@H]2N1C(=O)NCc1ccccc1 [Compound 151] |  | 
 | 1 ± 0.3 | 1.3 ± 0.7 | C=CCN1CC(=O)N2[C@@H](Cc3ccc(O)cc3)C(=O)N(Cc3cccc(N(C)C)c3)C[C@@H]2N1C(=O)NCc1ccccc1 [Compound 162] |  | 
 | 9.1 ± 0.5 | 8.2 ± 0.4 | C=CCN1CC(=O)N2[C@@H](CN([C@H](C)c3ccc(Cl)c4cccnc34)C(=O)[C@@H]2Cc2ccc(O)cc2)N1C(=O)NCc1ccccc1 [Compound 159] |  | 
 | 2.7 ± 0.8 | 2.1 ± 0.2 | C=CCN1CC(=O)N2[C@@H](Cc3ccc(O)cc3)C(=O)N(Cc3ccc(Cl)c(N4CCOCC4)c3)C[C@@H]2N1C(=O)NCc1ccccc1 [Compound 111] |  | 
 | 0.7 ± 0.1 | 0.6 ± 0.1 | C=CCN1CC(=O)N2[C@@H](Cc3ccc(O)cc3)C(=O)N(Cc3cccc4scnc34)C[C@@H]2N1C(=O)NCc1ccccc1 [Compound 152] |  | 
 | 3.1 ± 0.4 | 3 ± 0.3 | C=CCN1CC(=O)N2[C@@H](Cc3ccc(O)cc3)C(=O)N(Cc3cccc4sc(C(=O)OCC)nc34)C[C@@H]2N1C(=O)NCc1ccccc1 [Compound 195] |  | 
 | 5.1 ± 0.5 | 4.7 ± 0.3 | C#CCN1CC(=O)N2[C@@H](Cc3ccc(O)cc3)C(=O)N(Cc3ccc(Cl)c(N4CCOCC4)c3)C[C@@H]2N1C(=O)NCc1ccccc1 [Compound 112] |  | 
 | 24.9 ± 2.2 | 37.9 ± 5.7 | C=CCN1CC(=O)N2[C@@H](Cc3ccc(O)cc3)C(=O)N(Cc3ccc4[nH]nnc4c3)C[C@@H]2N1C(=O)NCc1ccccc1 [Compound 108] |  | 
 | 26.3 ± 2.5 | 23.3 ± 1.2 | C=CCN1CC(=O)N2[C@@H](Cc3ccc(O)cc3)C(=O)N([C@@H](C)c3ccc(Cl)c4cccnc34)C[C@@H]2N1C(=O)NCc1ccccc1 [Compound 155] |  | 
 | 4.9 ± 0.4 | 4.5 ± 0.2 | C=CCN1CC(=O)N2[C@@H](Cc3ccc(O)cc3)C(=O)N(Cc3ccc(OC)cc3)C[C@@H]2N1C(=O)NCc1ccc(Cl)c(Cl)c1 [Compound 185] |  | 
 | 4 ± 0.4 | 3.9 ± 0.7 | CCCN1CC(=O)N2[C@@H](Cc3ccc(O)cc3)C(=O)N(Cc3ccccc3)C[C@@H]2N1C(=O)NCc1ccccc1 [Compound 138] |  | 
